Measurements as given in the supplement of paper PMC10307832.

Key:
Experiment in all cases: relative viability (nuclei count vs DMSO), 5 days (fraction); higher = more cells survive
[1] = compound: C1CC(C2=C(C1)C3=C(N2)C=CC(=C3)Cl)C(=O)N [Selisistat] + CS(=O)(=O)N1CCN(Cc2cc3nc(-c4cccc5[nH]ncc45)nc(N4CCOCC4)c3s2)CC1 [Pictilisib] (partner 1 µM)
In short: (§1)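 Nuclei were stained with Hoechst during a one-step fixation (final 0.05% Triton X-100, 1% formaldehyde, 1 ug/ml Hoechst) carried out 5 days after dosing, then counted on 4× images. The cells, lung cancer lines in 1536-well plates, had been dosed by pin tool the day after seeding with one drug alone or a fixed anchor-drug dose plus five library-drug doses (not always all listed) in √10 steps. Relative viability is the nuclei count in treated wells divided by that in vehicle wells, and each value is the median of duplicate plates.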

[2] = compound: c1ccc2c(CCNc3ccc(Nc4ccncc4)cc3)c[nH]c2c1 [Serdemetan] + Cc1cc(Nc2cc(N3CCN(C)CC3)nc(Sc3ccc(NC(=O)C4CC4)cc3)n2)n[nH]1 [Tozasertib] (partner 0.1 µM)
In short: as §1

[3] = compound: c1ccc2c(CCNc3ccc(Nc4ccncc4)cc3)c[nH]c2c1 [Serdemetan] + O=C(c1cc(Cc2n[nH]c(=O)c3ccccc23)ccc1F)N1CCN(C(=O)C2CC2)CC1 [Olaparib] (partner 8 µM)
In short: as §1

[4] = compound: C1CC(C2=C(C1)C3=C(N2)C=CC(=C3)Cl)C(=O)N [Selisistat] + COc1cc2c(Oc3ccc(NC(=O)C4(C(=O)Nc5ccc(F)cc5)CC4)cc3F)ccnc2cc1OCCCN1CCOCC1 [Foretinib] (partner 0.25 µM)
In short: as §1

Cell Line	relative viability ([1]; first compound 0.4 µM)	relative viability ([1]; first compound 1.265 µM)	relative viability ([1]; first compound 4 µM)	relative viability ([1]; first compound 12.65 µM)	relative viability ([1]; first compound 40 µM)	relative viability ([2]; first compound 0.04 µM)	relative viability ([2]; first compound 0.1265 µM)	relative viability ([2]; first compound 0.4 µM)	relative viability ([2]; first compound 1.265 µM)	relative viability ([2]; first compound 4 µM)	relative viability ([3]; first compound 0.04 µM)	relative viability ([3]; first compound 0.1265 µM)	relative viability ([3]; first compound 0.4 µM)	relative viability ([3]; first compound 1.265 µM)	relative viability ([3]; first compound 4 µM)	relative viability ([4]; first compound 0.4 µM)	relative viability ([4]; first compound 1.265 µM)	relative viability ([4]; first compound 12.65 µM)	relative viability ([4]; first compound 40 µM)	relative viability ([4]; first compound 4 µM)
NCI-H2009	0.928	0.827	0.323	0.609	0.795	0.7	0.712	0.705	0.675	0.625	0.777	0.687	0.688	0.496	0.497	1.33	1.17	1.22	1.17	–
HCC-15	0.813	0.775	–	0.814	0.793	0.377	0.367	0.377	0.294	0.283	0.673	0.667	0.57	0.38	0.386	1.21	0.996	1.05	1.21	–
HCC-44	0.633	0.551	0.595	0.599	0.436	1	1.04	0.765	0.915	0.869	0.94	0.943	0.979	0.851	0.815	–	–	–	–	–
NCI-H1299	0.778	0.744	1.02	0.849	0.692	–	–	–	–	–	0.953	0.91	0.869	0.787	0.57	1.16	1.13	1.07	1.11	1.15
NCI-H1648	–	–	–	–	–	–	0.46	0.38	0.206	0.299	–	0.744	0.633	0.399	0.425	–	–	–	–	–
NCI-H1563	0.559	0.639	0.649	0.605	0.623	–	–	–	–	–	–	–	–	–	–	1.05	0.91	0.9	0.809	0.941
A549	0.605	0.478	0.525	0.55	0.449	–	–	–	–	–	0.208	0.382	0.269	0.141	0.147	1.04	0.826	0.917	0.985	0.945
NCI-H522	–	–	–	–	–	0.554	0.575	0.44	–	0.497	0.595	0.665	0.65	0.458	0.477	–	–	–	–	–
NCI-H1623	–	–	–	–	–	0.421	0.517	0.349	0.385	0.399	–	–	–	–	–	0.963	0.782	0.918	0.846	0.614
SW 900	–	–	–	–	–	0.494	0.413	0.441	0.329	0.359	1.03	0.892	0.861	0.691	0.459	0.921	0.778	0.955	0.977	0.798
IA-LM	0.277	0.368	0.353	0.502	0.375	–	–	–	–	–	0.883	0.886	0.839	0.392	0.396	1.21	1.07	0.902	1.19	1.19
EBC-1	0.373	0.286	0.46	0.454	0.389	–	–	–	–	–	0.694	0.669	0.703	0.594	0.547	0.111	0.0934	0.0996	0.104	0.0874
